± gives the expanded uncertainty stated by the source.
Settings: Liquid, Vibrating tube method

Cc1ccccn1 [2-methylpyridine]
mass density [kg/m3]
Settings | 298.15 K | 308.15 K | 318.15 K | 328.15 K
2130 kPa | 941.2 ± 0.8 | 932.1 ± 0.8 | 922.8 ± 0.8 | 913.5 ± 0.8
4150 kPa | 942.5 ± 0.8 | 933.5 ± 0.8 | 924.3 ± 0.8 | 915.1 ± 0.8
6180 kPa | 943.9 ± 0.8 | 935 ± 0.8 | 925.8 ± 0.8 | 916.7 ± 0.8
8210 kPa | 945.3 ± 0.8 | 936.4 ± 0.8 | 927.3 ± 0.8 | 918.3 ± 0.8
10230 kPa | 946.6 ± 0.8 | 937.8 ± 0.8 | 928.8 ± 0.8 | 919.8 ± 0.8
11250 kPa | 947.2 ± 0.8 | 938.5 ± 0.8 | 929.5 ± 0.8 | 920.5 ± 0.8
12260 kPa | 947.9 ± 0.8 | 939.1 ± 0.8 | 930.2 ± 0.8 | 921.3 ± 0.8
14290 kPa | 949.2 ± 0.8 | 940.5 ± 0.8 | 931.6 ± 0.8 | 922.8 ± 0.8
16310 kPa | 950.5 ± 0.8 | 941.9 ± 0.8 | 933 ± 0.8 | 924.3 ± 0.8
18340 kPa | 951.7 ± 0.8 | 943.2 ± 0.8 | 934.4 ± 0.8 | 925.7 ± 0.8
20370 kPa | 953 ± 0.8 | 944.5 ± 0.8 | 935.8 ± 0.8 | 927.2 ± 0.8
22390 kPa | 954.2 ± 0.8 | 945.8 ± 0.8 | 937.1 ± 0.8 | 928.6 ± 0.8
24420 kPa | 955.4 ± 0.8 | 947 ± 0.8 | 938.5 ± 0.8 | 930 ± 0.8
26450 kPa | 956.6 ± 0.8 | 948.3 ± 0.8 | 939.8 ± 0.8 | 931.4 ± 0.8
28470 kPa | 957.7 ± 0.8 | 949.5 ± 0.8 | 941.1 ± 0.8 | 932.7 ± 0.8
29490 kPa | 958.3 ± 0.8 | 950.1 ± 0.8 | 941.7 ± 0.8 | 933.4 ± 0.8
30500 kPa | 958.9 ± 0.8 | 950.8 ± 0.8 | 942.4 ± 0.8 | 934.1 ± 0.8
32520 kPa | 960.1 ± 0.8 | 952 ± 0.8 | 943.7 ± 0.8 | 935.4 ± 0.8
34550 kPa | 961.2 ± 0.8 | 953.2 ± 0.9 | 944.9 ± 0.9 | 936.8 ± 0.9
36580 kPa | 962.4 ± 0.9 | 954.3 ± 0.9 | 946.1 ± 0.9 | 938 ± 0.9
38600 kPa | 963.5 ± 0.9 | 955.5 ± 0.9 | 947.3 ± 0.9 | 939.3 ± 0.9
39620 kPa | 964 ± 0.9 | 956.1 ± 0.9 | 947.9 ± 0.9 | 940 ± 0.9

Cc1cccnc1 [3-methylpyridine]
mass density [kg/m3]
Settings | 298.15 K | 308.15 K | 318.15 K | 328.15 K
2130 kPa | 953.2 ± 0.3 | 944.3 ± 0.3 | 935.3 ± 0.3 | 926.3 ± 0.3
4150 kPa | 954.5 ± 0.3 | 945.7 ± 0.3 | 936.7 ± 0.3 | 927.8 ± 0.3
6180 kPa | 955.8 ± 0.3 | 947.1 ± 0.3 | 938.1 ± 0.3 | 929.2 ± 0.3
8210 kPa | 957.1 ± 0.3 | 948.4 ± 0.3 | 939.4 ± 0.3 | 930.7 ± 0.3
10230 kPa | 958.4 ± 0.3 | 949.7 ± 0.3 | 940.9 ± 0.3 | 932.2 ± 0.3
11250 kPa | 959 ± 0.3 | 950.4 ± 0.3 | 941.6 ± 0.3 | 932.9 ± 0.3
12260 kPa | 959.6 ± 0.3 | 951 ± 0.3 | 942.3 ± 0.3 | 933.6 ± 0.3
14290 kPa | 960.8 ± 0.3 | 952.3 ± 0.3 | 943.6 ± 0.3 | 935 ± 0.3
16310 kPa | 962.1 ± 0.3 | 953.6 ± 0.3 | 944.9 ± 0.3 | 936.4 ± 0.3
18340 kPa | 963.3 ± 0.3 | 954.8 ± 0.3 | 946.2 ± 0.3 | 937.7 ± 0.3
20370 kPa | 964.4 ± 0.3 | 956.1 ± 0.3 | 947.5 ± 0.3 | 939.1 ± 0.3
22390 kPa | 965.6 ± 0.3 | 957.3 ± 0.3 | 948.8 ± 0.3 | 940.4 ± 0.3
24420 kPa | 966.7 ± 0.3 | 958.5 ± 0.3 | 950.1 ± 0.3 | 941.7 ± 0.3
26450 kPa | 967.9 ± 0.3 | 959.7 ± 0.3 | 951.3 ± 0.3 | 943.1 ± 0.3
28470 kPa | 969 ± 0.3 | 960.9 ± 0.3 | 952.6 ± 0.3 | 944.4 ± 0.3
29490 kPa | 969.6 ± 0.3 | 961.5 ± 0.3 | 953.2 ± 0.3 | 945 ± 0.3
30500 kPa | 970.1 ± 0.3 | 962 ± 0.3 | 953.8 ± 0.3 | 945.7 ± 0.3
32530 kPa | 971.2 ± 0.3 | 963.2 ± 0.3 | 955 ± 0.3 | 946.9 ± 0.4
34550 kPa | 972.3 ± 0.3 | 964.3 ± 0.3 | 956.2 ± 0.3 | 948.2 ± 0.4
36580 kPa | 973.4 ± 0.3 | 965.4 ± 0.3 | 957.4 ± 0.3 | 949.4 ± 0.4
38600 kPa | 974.5 ± 0.3 | 966.5 ± 0.3 | 958.5 ± 0.3 | 950.6 ± 0.4
39620 kPa | 975 ± 0.3 | 967.1 ± 0.3 | 959.1 ± 0.3 | 951.2 ± 0.4

Cc1ccncc1 [4-methylpyridine]
mass density [kg/m3]
Settings | 298.15 K | 308.15 K | 318.15 K | 328.15 K
2130 kPa | 951.2 ± 0.3 | 942.3 ± 0.3 | 933.3 ± 0.3 | 924.3 ± 0.3
4150 kPa | 952.5 ± 0.3 | 943.7 ± 0.3 | 934.7 ± 0.3 | 925.8 ± 0.3
6180 kPa | 953.8 ± 0.3 | 945 ± 0.3 | 936.1 ± 0.3 | 927.3 ± 0.3
8210 kPa | 955.1 ± 0.3 | 946.4 ± 0.3 | 937.4 ± 0.3 | 928.7 ± 0.3
10230 kPa | 956.3 ± 0.3 | 947.7 ± 0.3 | 938.9 ± 0.3 | 930.2 ± 0.3
11250 kPa | 956.9 ± 0.3 | 948.3 ± 0.3 | 939.5 ± 0.3 | 930.9 ± 0.3
12260 kPa | 957.5 ± 0.3 | 949 ± 0.3 | 940.2 ± 0.3 | 931.6 ± 0.3
14290 kPa | 958.8 ± 0.3 | 950.3 ± 0.3 | 941.6 ± 0.3 | 933 ± 0.3
16310 kPa | 960 ± 0.3 | 951.5 ± 0.3 | 942.9 ± 0.3 | 934.4 ± 0.3
18340 kPa | 961.2 ± 0.3 | 952.8 ± 0.3 | 944.2 ± 0.3 | 935.7 ± 0.3
20370 kPa | 962.3 ± 0.3 | 954 ± 0.3 | 945.5 ± 0.3 | 937.1 ± 0.3
22390 kPa | 963.5 ± 0.3 | 955.2 ± 0.3 | 946.7 ± 0.3 | 938.4 ± 0.3
24420 kPa | 964.6 ± 0.3 | 956.4 ± 0.3 | 948 ± 0.3 | 939.7 ± 0.3
26450 kPa | 965.8 ± 0.3 | 957.6 ± 0.3 | 949.2 ± 0.3 | 941.1 ± 0.3
28470 kPa | 966.9 ± 0.3 | 958.8 ± 0.3 | 950.5 ± 0.3 | 942.3 ± 0.3
29490 kPa | 967.4 ± 0.3 | 959.3 ± 0.3 | 951.1 ± 0.3 | 943 ± 0.3
30500 kPa | 968 ± 0.3 | 959.9 ± 0.3 | 951.7 ± 0.3 | 943.6 ± 0.3
32530 kPa | 969.1 ± 0.3 | 961.1 ± 0.3 | 952.9 ± 0.3 | 944.8 ± 0.4
34550 kPa | 970.2 ± 0.3 | 962.2 ± 0.3 | 954 ± 0.3 | 946.1 ± 0.4
36580 kPa | 971.3 ± 0.3 | 963.3 ± 0.3 | 955.2 ± 0.3 | 947.3 ± 0.4
38600 kPa | 972.3 ± 0.3 | 964.4 ± 0.3 | 956.4 ± 0.3 | 948.5 ± 0.4
39620 kPa | 972.8 ± 0.3 | 965 ± 0.3 | 957 ± 0.3 | 949.1 ± 0.4

c1ccncc1 [pyridine]
mass density [kg/m3]
Settings | 298.15 K | 308.15 K | 318.15 K | 328.15 K
2130 kPa | 979 ± 0.2 | 969.2 ± 0.2 | 959.3 ± 0.2 | 949.2 ± 0.2
4150 kPa | 980.4 ± 0.2 | 970.6 ± 0.2 | 960.8 ± 0.2 | 950.7 ± 0.2
6180 kPa | 981.8 ± 0.2 | 972.1 ± 0.2 | 962.3 ± 0.2 | 952.3 ± 0.2
8210 kPa | 983.2 ± 0.2 | 973.5 ± 0.2 | 963.7 ± 0.2 | 953.9 ± 0.2
10230 kPa | 984.5 ± 0.2 | 974.9 ± 0.2 | 965.2 ± 0.2 | 955.4 ± 0.2
11250 kPa | 985.1 ± 0.2 | 975.6 ± 0.2 | 966 ± 0.2 | 956.2 ± 0.2
12260 kPa | 985.8 ± 0.2 | 976.3 ± 0.2 | 966.7 ± 0.2 | 956.9 ± 0.2
14290 kPa | 987.1 ± 0.2 | 977.6 ± 0.2 | 968.1 ± 0.2 | 958.4 ± 0.2
16310 kPa | 988.3 ± 0.2 | 978.9 ± 0.2 | 969.5 ± 0.2 | 959.9 ± 0.2
18340 kPa | 989.6 ± 0.2 | 980.3 ± 0.2 | 970.9 ± 0.2 | 961.3 ± 0.2
20370 kPa | 990.8 ± 0.2 | 981.6 ± 0.2 | 972.2 ± 0.2 | 962.8 ± 0.2
22390 kPa | 992.1 ± 0.2 | 982.8 ± 0.2 | 973.6 ± 0.2 | 964.2 ± 0.2
24420 kPa | 993.3 ± 0.2 | 984.1 ± 0.2 | 974.9 ± 0.2 | 965.6 ± 0.2
26450 kPa | 994.5 ± 0.2 | 985.4 ± 0.2 | 976.2 ± 0.2 | 967 ± 0.2
28470 kPa | 995.7 ± 0.2 | 986.7 ± 0.2 | 977.6 ± 0.2 | 968.3 ± 0.2
29490 kPa | 996.3 ± 0.2 | 987.2 ± 0.2 | 978.2 ± 0.2 | 969 ± 0.2
30500 kPa | 996.9 ± 0.2 | 987.8 ± 0.2 | 978.8 ± 0.2 | 969.7 ± 0.2
32530 kPa | 998 ± 0.2 | 989 ± 0.2 | 980.1 ± 0.2 | 971 ± 0.2
34550 kPa | 999.1 ± 0.2 | 990.3 ± 0.2 | 981.4 ± 0.2 | 972.3 ± 0.2
36580 kPa | 1000.3 ± 0.2 | 991.5 ± 0.2 | 982.6 ± 0.2 | 973.6 ± 0.2
38600 kPa | 1001.4 ± 0.2 | 992.6 ± 0.2 | 983.8 ± 0.2 | 975 ± 0.2
39620 kPa | 1002 ± 0.2 | 993.2 ± 0.2 | 984.4 ± 0.2 | 975.6 ± 0.2

Reference: the NIST ThermoML archive (doi:10.1016/j.jct.2009.07.006)
